The values that follow come from ChEMBL document CHEMBL1146741, “Cycloalkyl[b][1,4]benzodiazepinoindoles are agonists at the human 5-HT2C receptor” (Bioorg Med Chem Lett, 2004).

The target of assay [1] is T1, 5-hydroxytryptamine receptor 1A (Homo sapiens) (UniProt P08908).
T1 sequence (whole entry): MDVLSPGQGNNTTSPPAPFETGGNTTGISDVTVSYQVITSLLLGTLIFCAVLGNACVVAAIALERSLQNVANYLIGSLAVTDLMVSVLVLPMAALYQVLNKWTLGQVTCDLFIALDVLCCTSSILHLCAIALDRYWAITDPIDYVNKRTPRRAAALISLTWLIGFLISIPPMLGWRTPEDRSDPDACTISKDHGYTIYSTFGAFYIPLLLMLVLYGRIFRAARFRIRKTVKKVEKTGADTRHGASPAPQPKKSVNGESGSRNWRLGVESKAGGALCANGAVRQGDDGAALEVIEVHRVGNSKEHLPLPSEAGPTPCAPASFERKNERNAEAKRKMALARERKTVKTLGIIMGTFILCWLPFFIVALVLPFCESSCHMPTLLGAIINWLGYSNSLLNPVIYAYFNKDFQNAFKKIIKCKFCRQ
Put plainly: Percent binding affinity against 5-hydroxytryptamine 1A receptor. As to conditions: concentration not given here.

The target of assay [2] is T2, 5-hydroxytryptamine receptor 2C (Homo sapiens) (UniProt P28335).
T2 sequence (whole entry): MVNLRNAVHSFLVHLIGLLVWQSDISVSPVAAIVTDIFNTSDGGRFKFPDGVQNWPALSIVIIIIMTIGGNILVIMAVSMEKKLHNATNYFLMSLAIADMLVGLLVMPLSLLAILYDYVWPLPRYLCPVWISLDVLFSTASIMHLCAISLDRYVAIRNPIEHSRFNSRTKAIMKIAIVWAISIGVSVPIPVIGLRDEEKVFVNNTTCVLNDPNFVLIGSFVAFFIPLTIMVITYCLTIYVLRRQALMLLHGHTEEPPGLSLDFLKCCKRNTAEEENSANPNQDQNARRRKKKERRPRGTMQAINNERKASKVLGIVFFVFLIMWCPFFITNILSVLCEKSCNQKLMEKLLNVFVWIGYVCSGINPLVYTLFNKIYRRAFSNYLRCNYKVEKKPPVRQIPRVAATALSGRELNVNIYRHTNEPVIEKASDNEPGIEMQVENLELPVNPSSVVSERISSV
The assay can be described thus: Agonistic binding efficacy against human 5-hydroxytryptamine 2C receptor in CHO cells using [125I]- DOI radioligand. It is filed as cell-based.

Assay [3] addresses T2, 5-hydroxytryptamine receptor 2C (Homo sapiens). Put plainly: Agonistic binding affinity against human 5-hydroxytryptamine 2C receptor in CHO cells using [125I]- DOI radioligand, expressed as Emax. The format is cell-based.
For assay [4], the target named is D(3) dopamine receptor (Homo sapiens) (UniProt P35462). The assay can be described thus: Percent binding affinity against dopamine D3 receptor. The note with it: concentration not given here.
Chain of D(3) dopamine receptor (Homo sapiens) (P35462 whole entry, looked up): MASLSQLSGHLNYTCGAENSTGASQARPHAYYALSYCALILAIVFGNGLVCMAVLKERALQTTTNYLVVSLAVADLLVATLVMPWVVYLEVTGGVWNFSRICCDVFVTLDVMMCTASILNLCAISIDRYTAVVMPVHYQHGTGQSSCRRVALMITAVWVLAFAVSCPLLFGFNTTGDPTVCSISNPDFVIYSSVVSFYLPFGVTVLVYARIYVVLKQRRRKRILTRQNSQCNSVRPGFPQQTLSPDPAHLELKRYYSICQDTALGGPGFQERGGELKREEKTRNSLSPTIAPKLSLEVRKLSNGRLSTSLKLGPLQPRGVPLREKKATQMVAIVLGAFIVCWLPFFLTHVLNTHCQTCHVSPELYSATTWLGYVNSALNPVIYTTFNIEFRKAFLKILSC
Assay [5] addresses D(4) dopamine receptor (Homo sapiens) (UniProt P21917). Put plainly: Percent binding affinity against dopamine receptor D4. As to conditions: concentration not given here.
Assay [6] addresses T3, 5-hydroxytryptamine receptor 2A (Homo sapiens, UniProt P28223). Put plainly: Agonistic binding affinity against human 5-hydroxytryptamine 2A receptor in CHO cells using [125I]-DOI.
Assay [7] concerns the target T3, 5-hydroxytryptamine receptor 2A. The assay can be described thus: Effective concentration against human 5-hydroxytryptamine 2A receptor in CHO cells by stimulation of [3H]inositol monophosphate production.
The target in assay [8] is T4, 5-hydroxytryptamine receptor 2C (Homo sapiens, UniProt P28335).
T4 sequence (P28335 whole entry): T2 sequence (whole entry)
Put plainly: Agonistic binding affinity against human 5-hydroxytryptamine 2C receptor in CHO cells using [125I]- DOI. It is filed as cell-based.

The target in assay [9] is T3, 5-hydroxytryptamine receptor 2A. The assay can be described thus: Agonistic binding affinity against human 5-hydroxytryptamine 2A receptor in CHO cells using [125I]DOI radioligand.

The structures appear in SMILES notation.

T3 sequence (P28223 whole entry): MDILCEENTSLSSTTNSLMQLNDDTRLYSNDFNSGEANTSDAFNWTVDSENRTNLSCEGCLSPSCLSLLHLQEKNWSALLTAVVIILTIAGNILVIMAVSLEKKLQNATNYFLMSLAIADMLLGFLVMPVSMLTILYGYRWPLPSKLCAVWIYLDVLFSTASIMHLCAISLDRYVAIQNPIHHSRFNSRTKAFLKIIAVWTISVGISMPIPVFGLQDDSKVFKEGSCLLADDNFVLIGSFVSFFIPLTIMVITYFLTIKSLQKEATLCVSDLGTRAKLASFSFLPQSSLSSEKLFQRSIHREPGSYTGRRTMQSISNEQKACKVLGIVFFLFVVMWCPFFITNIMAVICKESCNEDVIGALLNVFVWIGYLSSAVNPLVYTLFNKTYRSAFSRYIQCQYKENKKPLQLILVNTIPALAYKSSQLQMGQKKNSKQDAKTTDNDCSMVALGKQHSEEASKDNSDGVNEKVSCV
Chain of D(4) dopamine receptor (Homo sapiens) (P21917 whole entry, looked up): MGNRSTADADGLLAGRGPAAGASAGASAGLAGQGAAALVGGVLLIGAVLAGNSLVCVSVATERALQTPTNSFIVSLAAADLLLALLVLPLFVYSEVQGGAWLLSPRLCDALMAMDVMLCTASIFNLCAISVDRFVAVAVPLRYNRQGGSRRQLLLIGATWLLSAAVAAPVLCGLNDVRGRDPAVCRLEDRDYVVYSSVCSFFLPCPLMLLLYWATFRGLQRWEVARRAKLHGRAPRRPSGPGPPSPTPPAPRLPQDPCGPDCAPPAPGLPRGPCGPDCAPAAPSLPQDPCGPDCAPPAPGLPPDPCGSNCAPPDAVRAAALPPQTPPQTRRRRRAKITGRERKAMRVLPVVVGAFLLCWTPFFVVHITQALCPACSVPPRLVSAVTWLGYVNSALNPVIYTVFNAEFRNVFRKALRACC

One may read the inhibition as the share of the control response that was lost under treatment. The low end stands for little suppression, the high end for strong suppression. As a reminder, the Emax is the size of the effect at its maximum, as opposed to the concentration needed. For orientation: Ki means a measure of affinity in units of concentration, obtained from inhibition or displacement. In general, EC50 refers to the concentration that produces a half-maximal response. With `c1cc2c3c(c1)c1c(n3CCNC2)CCCCCC1`, the values for the inhibition in assay [1], in assay [4] and in assay [5] were 4%, 37% and 47%, respectively. The compound also showed an Efficacy in [2] of 102%. Besides, in [3], the Emax is 102%. Besides, the Ki in assay [6] was 36 nM. This compound also displayed an EC50 in assay [7] of 64000 nM.
For the compound `Cc1cc2c3c(c1)c1c(n3CCNC2)CCCC1`, the Ki in [6] was found to be 1230 nM.
Same read-out and setting: then `Cc1cc2c3c(c1)c1c(n3CCNC2)CCC1`, with 2530 nM.
`Fc1ccc2c3c1c1c(n3CCNC2)CCCC1` yielded a Ki in assay [8] of 111 nM.
Turning to `c1cc2c3c(c1)c1c(n3CCNC2)CCC1`, the Emax in assay [3] worked out at 90%. The compound further came in with an inhibition constant Ki in assay [9] of 922 nM.
Take `C[C@@H]1Cn2c3c(c4cccc(c42)CN1)CCCC3`: in [6], the Ki was 1560 nM.
In turn, `c1cc2c3c(c1)c1c(n3CCNC2)CCCCC1` came in with an Efficacy in assay [2] of 73%. Besides, the Ki in [6] stood at 199 nM.
As for `CC1(C)Cc2c(c3cccc4c3n2CCNC4)C(C)(C)C1`, the inhibition constant Ki in assay [8] was 79 nM; in assay [6] it was 152 nM.
